# Measured values from patent US20260001875A1, “AMINOPYRIMIDINYL DERIVATIVES FOR THE TREATMENT OF PARKINSON'S DISEASE” (UNIVERSITY OF DUNDEE, priority 2022, published 2026).
# Columns and labels:
# Conditions in all cases: Mus musculus
# [1] = tested on: Rab10 pThr73; test: Rab10 Thr73 dephosphorylation (immunoblot) in LRRK2^G2019S MEFs; assay type: cell-based, mouse
# [2] = tested on: Rab10 pThr73; test: Rab10 Thr73 dephosphorylation (immunoblot) in WT MEFs; assay type: cell-based, mouse
# In short: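 Wild-type mouse embryonic fibroblasts in 6-well plates were treated with LRRK2 PROTACs, with two biological replicates per condition. Cells were washed in PBS and lysed on ice in buffer containing phosphatase and protease inhibitors plus 1% Triton X-100, then clarified at 15,000 g. Rab10 Thr73 phosphorylation was measured by quantitative immunoblotting of 15 to 20 μg protein on 4-12% Bis-Tris gels.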
# [3] = tested on: Rab10 pThr73; test: Rab10 Thr73 dephosphorylation (immunoblot) in LRRK2^G2019S MEFs; assay type: cell-based
# [4] = 1 μM/4 h treatment, read-out: pRab10 inhibited in LRRK2^G2019S MEFs
# [5] = 1 μM/24 h treatment, read-out: pRab10 inhibited in LRRK2^G2019S MEFs
# [6] = 33 nM/4 h treatment, read-out: pRab10 inhibited in WT MEFs
# [7] = 33 nM/24 h treatment, read-out: pRab10 inhibited in WT MEFs
# [8] = 1 μM/4 h treatment, read-out: pRab10 inhibited in WT MEFs
# [9] = 1 μM/24 h treatment, read-out: pRab10 inhibited in WT MEFs
# [10] = 33 nM/4 h treatment, read-out: pRab10 inhibited in LRRK2^G2019S MEFs
# [11] = 33 nM/24 h treatment, read-out: pRab10 inhibited in LRRK2^G2019S MEFs
Structure (SMILES),"inhibition at 1 µM [1, 4]","inhibition at 1 µM [1, 5]","inhibition at 0.033 µM [2, 6]","inhibition at 0.033 µM [2, 7]","inhibition at 1 µM [2, 8]","inhibition at 1 µM [2, 9]","inhibition at 0.033 µM [3, 10]","inhibition at 0.033 µM [3, 11]","inhibition at 1 µM ([1]; read-out: pRab10 inhibited in LRRK2^G2019S MEFs, 1 μM/4 h treatment)","inhibition at 1 µM ([1]; read-out: pRab10 inhibited in LRRK2^G2019S MEFs, 1 μM/24 h treatment)","inhibition at 0.033 µM ([2]; read-out: pRab10 inhibited in WT MEFs, 33 nM/4 h treatment)","inhibition at 0.033 µM ([2]; read-out: pRab10 inhibited in WT MEFs, 33 nM/24 h treatment)","inhibition at 1 µM ([2]; read-out: pRab10 inhibited in WT MEFs, 1 μM/4 h treatment)","inhibition at 1 µM ([2]; read-out: pRab10 inhibited in WT MEFs, 1 μM/24 h treatment)","inhibition at 0.033 µM ([3]; read-out: pRab10 inhibited in LRRK2^G2019S MEFs, 33 nM/4 h treatment)","inhibition at 0.033 µM ([3]; read-out: pRab10 inhibited in LRRK2^G2019S MEFs, 33 nM/24 h treatment)"
"CNc1nc(Nc2ccc(C(=O)N3CCN(CCOCCOCCSC(C)(C)[C@H](NC(=O)C4(F)CC4)C(=O)N4C[C@H](O)C[C@H]4C(=O)NCc4ccc(-c5scnc5C)c(F)c4)CC3)cc2OC)ncc1Cl [XL01123, (2S,4R)-1-((R)-3-((2-(2-(2-(4-(4-f((5-chloro-4-(methylamino)pyrimidin-2-yl)amino)-3-methoxybenzoyl)piperazin-1-yl)ethoxyl)ethoxy)ethyl)thio)-2-(1-fluorocyclopropane-1-carboxamido)-3-methylbutanoyl)-N-(3-fluoro-4-(4-methylthiazol-5-yl)benzyl)-4-hydroxypyrrolidine-2-carboxamide]",20 to 100%,10 to 100%,0 to 40%,0 to 60%,10 to 95%,30 to 100%,0 to 70%,0 to 90%,–,–,–,–,–,–,–,–
"CNc1nc(Nc2ccc(C(=O)N3CCN(CCOCCSC(C)(C)[C@H](NC(=O)C4(F)CC4)C(=O)N4C[C@H](O)C[C@H]4C(=O)NCc4ccc(-c5scnc5C)cc4)CC3)cc2OC)ncc1Cl [XL01131, (2S,4R)-1-((R)-3-((2-(2-(4-(4-((5-chloro-4-(methylamino)pyrimidin-2-yl)amino)-3-methoxybenzoyl)piperazin-1-yl)ethoxy)ethyl)thio)-2-(1-fluorocyclopropane-1-carboxamido)-3-methylbutanoyl)-4-hydroxy-N-(4-(4-methylthiazol-5-yl)benzyl)pyrrolidine-2-carboxamide]",20 to 100%,10 to 100%,0 to 40%,0 to 60%,10 to 95%,30 to 100%,0 to 70%,0 to 90%,–,–,–,–,–,–,–,–
"CNc1nc(Nc2ccc(C(=O)N3CCN(C[C@H](C)SC(C)(C)[C@H](NC(=O)C4(F)CC4)C(=O)N4C[C@H](O)C[C@H]4C(=O)NCc4ccc(-c5scnc5C)cc4)CC3)cc2OC)ncc1Cl [XL01140, (2S,4R)-1-((R)-3-(((S)-1-(4-(4-((5-chloro-4-(methylamino)pyrimidin-2-yl)amino)-3-methoxybenzoyl)piperazin-1-yl)propan-2-yl)thio)-2-(1-fluorocyclopropane-1-carboxamido)-3-methylbutanoyl)-4-hydroxy-N-(4-(4-methylthiazol-5-yl)benzyl)pyrrolidine-2-carboxamide]",20 to 100%,10 to 100%,0 to 40%,0 to 60%,10 to 95%,30 to 100%,0 to 70%,0 to 90%,–,–,–,–,–,–,–,–
"CNc1nc(Nc2ccc(OCCOCCOCCOCCSC(C)(C)[C@@H](NC(=O)C3(F)CC3)C(=O)N3C[C@H](O)C[C@H]3C(=O)NCc3ccc(-c4scnc4C)cc3)cc2OC)ncc1Cl [XL01145, (2S,4R)-1-((S)-1-(4-((5-chloro-4-(methylamino)pyrimidin-2-yl)amino)-3-methoxyphenoxy)-14-(1-fluorocyclopropane-1-carboxamido)-13,13-dimethyl-3,6,9-trioxa-12-thiapentadecan-15-oyl)-4-hydroxy-N-(4-(4-methylthiazol-5-yl)benzyl)pyrrolidine-2-carboxamide]",20 to 100%,10 to 100%,0 to 40%,0 to 60%,10 to 95%,30 to 100%,0 to 70%,0 to 90%,–,–,–,–,–,–,–,–
"CNc1nc(Nc2ccc(OCCOCCCSC(C)(C)[C@@H](NC(=O)C3(F)CC3)C(=O)N3C[C@H](O)C[C@H]3C(=O)NCc3ccc(-c4scnc4C)cc3)cc2OC)ncc1Cl [XL01149, (2S,4R)-1-((S)-3-((3-(2-(4-((5-chloro-4-(methylamino)pyrimidin-2-yl)amino)-3-methoxyphenoxy)ethoxy)propyl)thio)-2-(1-fluorocyclopropane-1-carboxamido)-3-methylbutanoyl)-4-hydroxy-N-(4-(4-methylthiazol-5-yl)benzyl)pyrrolidine-2-carboxamide]",20 to 100%,10 to 100%,0 to 40%,0 to 60%,10 to 95%,30 to 100%,0 to 70%,0 to 90%,–,–,–,–,–,–,–,–
"CNc1nc(Nc2ccc(OC[C@H]3CC[C@H](CSC(C)(C)C(NC(=O)C4(F)CC4)C(=O)N4C[C@H](O)C[C@H]4C(=O)NCc4ccc(-c5scnc5C)cc4)CC3)cc2OC)ncc1Cl (stereo partly drawn) [XL01168, (2S,4R)-1-((S)-3-((((1R,4S)-4-((4-((5-chloro-4-(methylamino)pyrimidin-2-yl)amino)-3-methoxyphenoxy)methyl)cyclohexyl)methyl)thio)-2-(1-fluorocyclopropane-1-carboxamido)-3-methylbutanoyl)-4-hydroxy-N-(4-(4-methylthiazol-5-yl)benzyl)pyrrolidine-2-carboxamide]",20 to 100%,10 to 100%,0 to 40%,0 to 60%,10 to 95%,30 to 100%,0 to 70%,0 to 90%,–,–,–,–,–,–,–,–
CNc1nc(Nc2ccc(C(=O)N3C[C@@H](C)N(C[C@H]4CC[C@H](CSC(C)(C)C(NC(=O)C5(F)CC5)C(=O)N5C[C@H](O)C[C@H]5C(=O)NCc5ccc(-c6scnc6C)cc5)CC4)[C@@H](C)C3)cc2OC)ncc1Cl (some centres unmarked) [XL02031],10 to 100%,80 to 100%,0 to 70%,0 to 80%,80 to 100%,80 to 100%,0 to 90%,30 to 90%,–,–,–,–,–,–,–,–
"CNc1nc(Nc2ccc(C(=O)N3CCN(C[C@H]4CC[C@@H](CSC(C)(C)[C@H](NC(=O)C5(F)CC5)C(=O)N5C[C@H](O)CC5C(=O)NCc5ccc(-c6scnc6C)cc5F)CC4)CC3)cc2OC)ncc1Cl (stereo partly drawn) [XL02058, (2S,4R)-1-((R)-3-((((1s,4S)-4-((4-(4-((5-chloro-4-(methylamino)pyrimidin-2-yl)amino)-3-methoxybenzoyl)piperazin-1-yl)methyl)cyclohexyl)methyl)thio)-2-(1-fluorocyclopropane-1-carboxamido)-3-methylbutanoyl)-N-(2-fluoro-4-(4-methylthiazol-5-yl)benzyl)-4-hydroxypyrrolidine-2-carboxamide]",10 to 100%,80 to 100%,0 to 70%,0 to 80%,80 to 100%,80 to 100%,0 to 90%,30 to 90%,–,–,–,–,–,–,–,–
"CNc1nc(Nc2ccc(C(=O)N3CCN(C[C@@H]4CCC[C@H](CSC(C)(C)[C@H](NC(=O)C5(F)CC5)C(=O)N5C[C@H](O)C[C@H]5C(=O)NCc5ccc(-c6scnc6C)cc5)C4)CC3)cc2OC)ncc1Cl [XL02063, (2S,4R)-1-((R)-3-((((1S,3R)-3-((4-(4-((5-chloro-4-(methylamino)pyrimidin-2-yl)amino)-3-methoxybenzoyl)piperazin-1-yl)methyl)cyclohexyl)methyl)thio)-2-(1-fluorocyclopropane-1-carboxamido)-3-methylbutanoyl)-4-hydroxy-N-(4-(4-methylthiazol-5-yl)benzyl)pyrrolidine-2-carboxamide]",10 to 100%,80 to 100%,0 to 70%,0 to 80%,80 to 100%,80 to 100%,0 to 90%,30 to 90%,–,–,–,–,–,–,–,–
"CNc1nc(Nc2ccc(C(=O)N3CCC4(CCN(CCCSC(C)(C)[C@H](NC(=O)C5(F)CC5)C(=O)N5C[C@H](O)C[C@H]5C(=O)NCc5ccc(-c6scnc6C)cc5)CC4)CC3)cc2OC)ncc1Cl [XL02067B, (2S,4R)-1-((R)-3-((3-(9-(4-((5-chloro-4-(methylamino)pyrimidin-2-yl)amino)-3-methoxybenzoyl)-3,9-diazaspiro[5.5]undecan-3-yl)propyl)thio)-2-(1-fluorocyclopropane-1-carboxamido)-3-methylbutanoyl)-4-hydroxy-N-(4-(4-methylthiazol-5-yl)benzyl)pyrrolidine-2-carboxamide]",–,–,–,–,–,–,–,–,10 to 100%,80 to 100%,0 to 70%,0 to 80%,80 to 100%,80 to 100%,0 to 90%,30 to 90%
